Structures can show the parent of a compound that is named as a salt.
Key:
Format in all cases: biochemical
Human Factor XIa = Human Factor XIa (Homo sapiens (Human), UniProt P03951); assay: Factor XIa enzyme activity, chromogenic substrate S-2366; conditions: purified human Factor XIa 0.1 U/mL, 300 μM S-2366, pH7.4; read-out: In vitro FXIa inhibitory activity IC50
Experimental: (§1) Inhibitory activities of compounds of the present invention against factor XIa, Xa, XIIa, IXa, VIIa, plasma kallikrein or thrombin were evaluated using appropriate purified proteases and synthetic substrates. The rate of hydrolysis of the chromogenic substrate by the relevant protease was continuously measured at 405 nm. Inhibitory activity against each enzyme was calculated as % inhibition using the equation described below. % Inhibition=[[(rate without compound)−(rate with compound)]/(rate without compound)]×100%. Each half maximal inhibitory concentration (IC50) value was determined by plotting the concentration of compound of the invention against the % inhibition. (1-1) Factor XIa Enzyme Activity
Human Factor XIa (Haematologic Technologies Inc.) activity was measured at an enzyme concentration of 0.1 U/mL in 150 mM NaCl, 5 mM KCl, 1 mg/mL PEG6000, 50 mM HEPES-NaOH (pH7.4) with 300 μM S-2366 (pyroGlu-Pro-Arg-pNA, Chromogenix).

Human Factor Xa = Human Factor Xa (Homo sapiens (Human), UniProt P00742); assay: Factor Xa enzyme activity, chromogenic substrate S-2222; conditions: human Factor Xa 0.18 U/mL, 300 μM S-2222, pH7.4; read-out: In vitro FXa inhibitory activity IC50
Chain of Human Factor Xa (P00742 235-488): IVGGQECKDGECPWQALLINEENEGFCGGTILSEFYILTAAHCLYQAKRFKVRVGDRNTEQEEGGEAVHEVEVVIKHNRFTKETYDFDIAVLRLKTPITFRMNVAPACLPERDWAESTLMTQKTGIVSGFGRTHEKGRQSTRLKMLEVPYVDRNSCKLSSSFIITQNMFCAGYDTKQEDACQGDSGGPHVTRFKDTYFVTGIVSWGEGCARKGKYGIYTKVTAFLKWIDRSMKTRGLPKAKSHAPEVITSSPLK
Chain of Human Factor Xa (P00742 41-179 partner): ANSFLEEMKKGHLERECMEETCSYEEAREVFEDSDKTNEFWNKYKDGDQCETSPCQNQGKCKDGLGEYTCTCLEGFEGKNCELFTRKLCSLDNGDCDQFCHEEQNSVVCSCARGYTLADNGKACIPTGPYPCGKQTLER
Experimental: as §1
(§2) Human Factor Xa (American Diagnostica Inc.) and human thrombin (Sigma) activities were measured at the enzyme concentrations of 0.18 U/mL and 0.12 U/mL, respectively in the same buffer containing 150 mM NaCl, 2 mg/mL PEG6000, 50 mM Tris-HCl (pH7.4), except that the reactions were started with 300 μM S-2222 ([…], Chromogenix) and 300 μM S-2366, respectively.

human thrombin = human thrombin (Homo sapiens (Human), UniProt P00734); assay: Thrombin enzyme activity, chromogenic substrate S-2366; conditions: human thrombin 0.12 U/mL, 300 μM S-2366, pH7.4; read-out: In vitro Thrombin inhibitory activity IC50
Experimental: as §1, §2

Chain of Human Factor XIa (P03951 388-625): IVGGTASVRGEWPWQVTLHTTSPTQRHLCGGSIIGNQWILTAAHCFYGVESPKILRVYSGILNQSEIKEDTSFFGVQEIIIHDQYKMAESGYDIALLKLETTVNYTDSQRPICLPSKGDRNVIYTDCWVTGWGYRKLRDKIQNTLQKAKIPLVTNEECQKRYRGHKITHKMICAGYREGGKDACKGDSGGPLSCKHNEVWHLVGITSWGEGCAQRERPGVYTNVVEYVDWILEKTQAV
Chain of Human Factor XIa (P03951 19-387 partner): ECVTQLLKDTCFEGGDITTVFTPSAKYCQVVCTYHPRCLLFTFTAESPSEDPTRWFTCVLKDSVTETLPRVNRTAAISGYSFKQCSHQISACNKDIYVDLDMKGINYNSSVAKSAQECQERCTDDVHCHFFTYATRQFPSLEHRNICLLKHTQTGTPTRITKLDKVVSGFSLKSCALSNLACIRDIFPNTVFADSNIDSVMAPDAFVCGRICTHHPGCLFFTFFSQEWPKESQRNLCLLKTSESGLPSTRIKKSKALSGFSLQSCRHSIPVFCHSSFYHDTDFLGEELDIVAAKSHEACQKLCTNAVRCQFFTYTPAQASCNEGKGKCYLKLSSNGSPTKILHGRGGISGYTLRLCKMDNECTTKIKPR

Compound | IC50 (Human Factor XIa) [nM] | IC50 (Human Factor Xa) [nM] | IC50 (human thrombin) [nM]
CS(=O)(=O)N1CCN([C@H]2C[C@@H](C(=O)Nc3ccc(C(=O)O)cc3)N(C(=O)C3CCN(C(=N)N)CC3)C2)CC1 [Example 9, 4-[({(2S,4S)-1-[(1-carbamimidoyl-4-piperidinyl)carbonyl]-4-[4-(methylsulfonyl)-1-piperazinyl]-2-pyrrolidinyl}carbonyl)amino]benzoic acid bis(trifluoroacetate)] | 17 | > 100000 | > 100000
CS(=O)(=O)N1CCN([C@H]2C[C@@H](C(=O)Nc3ccc(C(=O)O)cc3)N(C(=O)c3ccc(C(=N)N)cc3)C2)CC1 [Example 20, 4-[({(2S,4S)-1-(4-carbamimidoylbenzoyl)-4-[4-(methylsulfonyl)-1-piperazinyl]-2-pyrrolidinyl}carbonyl)amino]benzoic acid bis(trifluoroacetate)] | 3.2 | > 100000 | > 100000
O=C(O)c1ccc(NC(=O)[C@@H]2C[C@H](N3CCOCC3)CN2C(=O)/C=C/c2cc(Cl)ccc2-n2cnnn2)cc1 [Example 37, 4-({[(2S,4S)-1-{(2E)-3-[5-chloro-2-(1H-tetrazol-1-yl)phenyl]-2-propenoyl}-4-(4-morpholinyl)-2-pyrrolidinyl]carbonyl}amino)benzoic acid trifluoroacetate] | 13 | > 100000 | > 100000
O=C(Nc1ccccc1)[C@@H]1C[C@H](N2CCN(S(=O)(=O)c3ccccc3)CC2)CN1C(=O)/C=C/c1cc(Cl)ccc1-n1cnnn1 [Example 39, (2S,4S)-1-{(2E)-3-[5-chloro-2-(1H-tetrazol-1-yl)phenyl]-2-propenoyl}-N-phenyl-4-[4-(phenylsulfonyl)-1-piperazinyl]-2-pyrrolidinecarboxamide] | 78 | > 100000 | > 100000
O=C(Nc1ccc2nn[nH]c2c1)[C@@H]1C[C@H](N2CCOCC2)CN1C(=O)/C=C/c1cc(Cl)ccc1-n1cnnn1 [Example 43, (2S,4S)—N-(1H-benzotriazol-6-yl)-1-{(2E)-3-[5-chloro-2-(1H-tetrazol-1-yl)phenyl]-2-propenoyl}-4-(4-morpholinyl)-2-pyrrolidinecarboxamide trifluoroacetate] | 11 | > 100000 | > 100000
NC[C@H]1CC[C@H](C(=O)N2C[C@@H](N3CCN(S(=O)(=O)C4CC4)CC3)C[C@H]2C(=O)Nc2ccc(C(=O)O)cc2)CC1 [Example 55, 4-[({(2S,4S)-1-{[trans-4-(aminomethyl)cyclohexyl]carbonyl}-4-[4-(cyclopropylsulfonyl)-1-piperazinyl]-2-pyrrolidinyl}carbonyl)amino]benzoic acid bis(trifluoroacetate)] | 14 | > 100000 | > 100000
C[C@H]1CN([C@H]2C[C@@H](C(=O)Nc3ccccc3)N(C(=O)/C=C/c3cc(Cl)ccc3-n3cnnn3)C2)CCN1S(N)(=O)=O [Example 57, (2S,4S)-1-{(2E)-3-[5-chloro-2-(1H-tetrazol-1-yl)phenyl]-2-propenoyl}-4-[(3S)-3-methyl-4-sulfamoyl-1-piperazinyl]-N-phenyl-2-pyrrolidinecarboxamide trifluoroacetate] | 27 | > 100000 | > 100000
COC(=O)Nc1ccc(-c2cnc([C@@H]3C[C@H](C4CCN(S(C)(=O)=O)CC4)CN3C(=O)C3CCN(C(=N)N)CC3)[nH]2)cc1 [Example 69, methyl [4-(2-{(2S,4R)-1-[(1-carbamimidoyl-4-piperidinyl)carbonyl]-4-[1-(methylsulfonyl)-4-piperidinyl]-2-pyrrolidinyl}-1H-imidazol-5-yl)phenyl]carbamate dihydrochloride] | 7.4 | > 100000 | > 100000
CS(=O)(=O)N1CCC([C@H]2C[C@@H](C(=O)Nc3ccc(C(=O)O)cc3)N(C(=O)c3ccc(C(=N)N)cc3)C2)CC1 [Example 111, 4-[({(2S,4R)-1-(4-carbamimidoylbenzoyl-4-[1-(methylsulfonyl)-4-piperidinyl]-2-pyrrolidinyl}carbonyl)amino]benzoic acid hydrochloride] | 8.5 | – | > 100000
